This data set relates to CCRIS mutagenicity, Ames/micronucleus/aberration tests. Kind of data set: CCRIS mutagenicity studies.
The mark [1] stands for this setting: Test System: AMES SALMONELLA TYPHIMURIUM, Strain/Indicator: TA98, Metabolic Activation: NONE, Method: STANDARD PLATE.
Setting [2] is: Test System: AMES SALMONELLA TYPHIMURIUM, Strain/Indicator: TA98, Metabolic Activation: RAT, LIVER, S-9, PHENOBARBITAL, Method: STANDARD PLATE.
[3] abbreviates: Test System: AMES SALMONELLA TYPHIMURIUM, Strain/Indicator: TA100, Metabolic Activation: NONE, Method: STANDARD PLATE.
[4] abbreviates: Test System: AMES SALMONELLA TYPHIMURIUM, Strain/Indicator: TA98, Metabolic Activation: NONE, Method: PREINCUBATION
Setting [5] is: Test System: AMES SALMONELLA TYPHIMURIUM, Strain/Indicator: TA100, Metabolic Activation: NONE, Method: PREINCUBATION

Activity calls are given as the source filed them. How the calls were made is not given here.

As to `O.O=C([O-])c1ccccn1.O=C([O-])c1ccccn1.O=C([O-])c1ccccn1.[Cr+3]`, the mutagenic call was “inactive; negative” (End Point: In vivo micronucleus, Test System: Peripheral blood normochromatic erythrocytes, Species: Mouse, Strain/Sex: B6C3F1/Female, Route: Oral); “inactive; negative” (End Point: In vivo micronucleus, Test System: Peripheral blood normochromatic erythrocytes, Species: Mouse, Strain/Sex: B6C3F1/Male, Route: Oral); “inactive; negative” (Test System: Ames Salmonella typhimurium, Strain/Indicator: TA98, Metabolic Activation: None, Method: Preincubation); “inactive; negative” (Test System: Ames Salmonella typhimurium, Strain/Indicator: TA98, Metabolic Activation: Rat, Liver, S-9, Aroclor 1254 (10%), Method: Preincubation); “inactive; negative” (Test System: Ames Salmonella typhimurium, Strain/Indicator: TA98, Metabolic Activation: Rat, Liver, S-9, Phenobarbital and 5,6-benzoflavone, Method: Preincubation); “inactive; negative” (Test System: Ames Salmonella typhimurium, Strain/Indicator: TA100, Metabolic Activation: None, Method: Preincubation). Moreover, the mutagenic call is, setting by setting: (Test System: Ames Salmonella typhimurium, Strain/Indicator: TA100, Metabolic Activation: Rat, Liver, S-9, Aroclor 1254 (10%), Method: Preincubation) “inactive; negative”; (Test System: Ames Salmonella typhimurium, Strain/Indicator: TA100, Metabolic Activation: Rat, Liver, S-9, Phenobarbital and 5,6-benzoflavone, Method: Preincubation) “inactive; negative”; (Test System: Ames Salmonella typhimurium, Strain/Indicator: TA1535, Metabolic Activation: None, Method: Preincubation) “inactive; negative”; (Test System: Ames Salmonella typhimurium, Strain/Indicator: TA1535, Metabolic Activation: Rat, Liver, S-9, Phenobarbital and 5,6-benzoflavone, Method: Preincubation) “inactive; negative”; (Test System: Ames Salmonella typhimurium, Strain/Indicator: TA1537, Metabolic Activation: None, Method: Preincubation) “inactive; negative”; (Test System: Ames Salmonella typhimurium, Strain/Indicator: TA1537, Metabolic Activation: Rat, Liver, S-9, Phenobarbital and 5,6-benzoflavone, Method: Preincubation) “inactive; negative”. The mutagenic call is “inactive; negative” (Test System: E. coli, Strain/Indicator: WP2 uvrA/pKM101, Metabolic Activation: None, Method: Preincubation); “inactive; negative” (Test System: E. coli, Strain/Indicator: WP2uvrA/pKM101, Metabolic Activation: None, Method: Preincubation); “inactive; negative” (Test System: E. coli, Strain/Indicator: WP2 uvrA/pKM101, Metabolic Activation: Rat, Liver, S-9, Aroclor 1254 (10%), Method: Preincubation); “inactive; negative” (Test System: E. coli, Strain/Indicator: WP2uvrA/pKM101, Metabolic Activation: Rat, Liver, S-9, Phenobarbital and 5,6-benzoflavone, Method: Preincubation).
With `Nc1ccc2cc(S(=O)(=O)O)cc(O)c2c1N=Nc1ccc([N+](=O)[O-])cc1S(=O)(=O)O`, the mutagenic call was “inactive; negative” under setting [1]; “inactive; negative” under setting [2]; “inactive; negative” under setting [3]; “inactive; negative” (Test System: AMES SALMONELLA TYPHIMURIUM, Strain/Indicator: TA100, Metabolic Activation: RAT, LIVER, S-9, PHENOBARBITAL, Method: STANDARD PLATE).
Regarding `CN(C)CCNC(=O)c1cccc2c1Oc1ccccc1O2`, the mutagenic call (Test System: AMES SALMONELLA TYPHIMURIUM, Strain/Indicator: TA1537, Metabolic Activation: NONE, Method: STANDARD PLATE) is “active; positive”.
On to `O=[N+]([O-])c1ccc(/C=C/c2ccc(Cl)cc2)cc1`, for which the mutagenic call (Test System: AMES SALMONELLA TYPHIMURIUM, Strain/Indicator: TA98 (NR), Metabolic Activation: NONE, Method: STANDARD PLATE) is “active; positive”; the mutagenic call (Test System: AMES SALMONELLA TYPHIMURIUM, Strain/Indicator: TA98 (NR), Metabolic Activation: S-9, Method: STANDARD PLATE) was “active; positive”; the mutagenic call under setting [1] is “active; positive”; the mutagenic call (Test System: AMES SALMONELLA TYPHIMURIUM, Strain/Indicator: TA98, Metabolic Activation: S-9, Method: STANDARD PLATE) was “active; positive”; the mutagenic call (Test System: AMES SALMONELLA TYPHIMURIUM, Strain/Indicator: TA100 (NR), Metabolic Activation: NONE, Method: STANDARD PLATE) was “inactive; negative”; the mutagenic call (Test System: AMES SALMONELLA TYPHIMURIUM, Strain/Indicator: TA100 (NR), Metabolic Activation: S-9, Method: STANDARD PLATE) was “inactive; negative”. Also, the mutagenic call runs as follows: under setting [3], “inactive; negative”; (Test System: AMES SALMONELLA TYPHIMURIUM, Strain/Indicator: TA100, Metabolic Activation: S-9, Method: STANDARD PLATE) “active; positive”.
For `OC1c2ccc3c(c2C2OC2C1O)-c1cccc2cccc-3c12` (stereo not drawn), the mutagenic call is “active; positive” (Test System: AMES SALMONELLA TYPHIMURIUM, Strain/Indicator: TA97A, Metabolic Activation: NONE, Method: PREINCUBATION); “active; positive” under setting [4]; “active; positive” under setting [5].
Regarding `CC1=CC(=O)c2nc(C)c3c([nH]c4ccccc43)c2C1=O`, the mutagenic call (Test System: AMES SALMONELLA TYPHIMURIUM, Strain/Indicator: TA97, Metabolic Activation: NONE, Method: STANDARD PLATE) is “active; positive”; the mutagenic call (Test System: AMES SALMONELLA TYPHIMURIUM, Strain/Indicator: TA97, Metabolic Activation: RAT, LIVER, S-9, AROCLOR 1254, Method: STANDARD PLATE) is “active; positive”; the mutagenic call under setting [1] is “active; positive”; the mutagenic call (Test System: AMES SALMONELLA TYPHIMURIUM, Strain/Indicator: TA98, Metabolic Activation: RAT, LIVER, S-9, AROCLOR 1254, Method: STANDARD PLATE) is “active; positive”; the mutagenic call under setting [3] was “active; positive”; the mutagenic call (Test System: AMES SALMONELLA TYPHIMURIUM, Strain/Indicator: TA100, Metabolic Activation: RAT, LIVER, S-9, AROCLOR 1254, Method: STANDARD PLATE) was “inactive; negative”. For the same molecule, the mutagenic call is, setting by setting: (Test System: AMES SALMONELLA TYPHIMURIUM, Strain/Indicator: TA102, Metabolic Activation: NONE, Method: STANDARD PLATE) “inactive; negative”; (Test System: AMES SALMONELLA TYPHIMURIUM, Strain/Indicator: TA102, Metabolic Activation: RAT, LIVER, S-9, AROCLOR 1254, Method: STANDARD PLATE) “inactive; negative”.
In the case of `O=c1ccc2ccc3occc3c2o1`, the mutagenic call was “inactive; negative” under setting [1] and “inactive; negative” under setting [2].
Take `Cc1cnccn1`: the mutagenic call is, setting by setting: under setting [4], “inactive; negative”; (Test System: AMES SALMONELLA TYPHIMURIUM, Strain/Indicator: TA98, Metabolic Activation: RAT, LIVER, S-9, AROCLOR 1254, Method: PREINCUBATION) “inactive; negative”; under setting [5], “inactive; negative”; (Test System: AMES SALMONELLA TYPHIMURIUM, Strain/Indicator: TA100, Metabolic Activation: RAT, LIVER, S-9, AROCLOR 1254, Method: PREINCUBATION) “inactive; negative”; (Test System: AMES SALMONELLA TYPHIMURIUM, Strain/Indicator: TA102, Metabolic Activation: NONE, Method: PREINCUBATION) “inactive; negative”; (Test System: AMES SALMONELLA TYPHIMURIUM, Strain/Indicator: TA102, Metabolic Activation: RAT, LIVER, S-9, AROCLOR 1254, Method: PREINCUBATION) “inactive; negative”.

The values are drawn from PubChem BioAssay AID1259407 (Chemical Carcinogenesis Research Information System (CCRIS), 2018).
